Among the data in patent US10556914B2, “Substituted isoxazolopyridazinones and isothiazolopyridazinones and methods of use” (AbbVie Inc., priority 2015, dated 2020) are EC50 values, retold here.

This assay deals with GABA-B receptor (Rattus norvegicus (Rat), UniProt O88871+Q9Z0U4). In words: [35S]GTPgS Binding Assay (rat brain cortex membranes, native receptor). Type of assay: biochemical. The note with it: rat cortical membranes; in the presence of 1 μM GABA (EC25); basal binding 0%, maximal binding (1 mM GABA) 100%.
Sequence of GABA-B receptor (Q9Z0U4 17-960): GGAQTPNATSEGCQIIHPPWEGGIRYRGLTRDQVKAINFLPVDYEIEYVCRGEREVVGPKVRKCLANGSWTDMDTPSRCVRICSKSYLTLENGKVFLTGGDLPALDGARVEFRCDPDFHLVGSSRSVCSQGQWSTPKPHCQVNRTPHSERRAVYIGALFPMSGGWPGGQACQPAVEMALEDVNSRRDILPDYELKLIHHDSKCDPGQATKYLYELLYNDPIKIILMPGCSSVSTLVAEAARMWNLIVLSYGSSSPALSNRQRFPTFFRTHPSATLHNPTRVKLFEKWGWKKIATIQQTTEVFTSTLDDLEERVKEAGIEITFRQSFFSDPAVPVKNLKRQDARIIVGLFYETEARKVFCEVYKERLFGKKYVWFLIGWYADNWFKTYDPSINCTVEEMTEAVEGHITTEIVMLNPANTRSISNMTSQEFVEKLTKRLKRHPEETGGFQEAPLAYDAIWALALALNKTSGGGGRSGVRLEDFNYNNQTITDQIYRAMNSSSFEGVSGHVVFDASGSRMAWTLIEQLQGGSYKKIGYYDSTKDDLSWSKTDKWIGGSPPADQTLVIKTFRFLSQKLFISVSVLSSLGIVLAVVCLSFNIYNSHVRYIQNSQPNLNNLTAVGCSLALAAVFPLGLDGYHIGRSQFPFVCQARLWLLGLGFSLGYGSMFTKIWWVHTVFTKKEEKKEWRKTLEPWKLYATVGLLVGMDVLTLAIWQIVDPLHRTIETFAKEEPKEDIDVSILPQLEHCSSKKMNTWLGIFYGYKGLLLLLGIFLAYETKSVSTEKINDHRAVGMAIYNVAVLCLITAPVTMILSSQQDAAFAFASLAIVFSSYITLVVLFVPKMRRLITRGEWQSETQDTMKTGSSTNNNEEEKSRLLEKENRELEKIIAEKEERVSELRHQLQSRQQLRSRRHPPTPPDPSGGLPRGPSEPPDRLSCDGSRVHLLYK
Sequence of GABA-B receptor (O88871 41-940): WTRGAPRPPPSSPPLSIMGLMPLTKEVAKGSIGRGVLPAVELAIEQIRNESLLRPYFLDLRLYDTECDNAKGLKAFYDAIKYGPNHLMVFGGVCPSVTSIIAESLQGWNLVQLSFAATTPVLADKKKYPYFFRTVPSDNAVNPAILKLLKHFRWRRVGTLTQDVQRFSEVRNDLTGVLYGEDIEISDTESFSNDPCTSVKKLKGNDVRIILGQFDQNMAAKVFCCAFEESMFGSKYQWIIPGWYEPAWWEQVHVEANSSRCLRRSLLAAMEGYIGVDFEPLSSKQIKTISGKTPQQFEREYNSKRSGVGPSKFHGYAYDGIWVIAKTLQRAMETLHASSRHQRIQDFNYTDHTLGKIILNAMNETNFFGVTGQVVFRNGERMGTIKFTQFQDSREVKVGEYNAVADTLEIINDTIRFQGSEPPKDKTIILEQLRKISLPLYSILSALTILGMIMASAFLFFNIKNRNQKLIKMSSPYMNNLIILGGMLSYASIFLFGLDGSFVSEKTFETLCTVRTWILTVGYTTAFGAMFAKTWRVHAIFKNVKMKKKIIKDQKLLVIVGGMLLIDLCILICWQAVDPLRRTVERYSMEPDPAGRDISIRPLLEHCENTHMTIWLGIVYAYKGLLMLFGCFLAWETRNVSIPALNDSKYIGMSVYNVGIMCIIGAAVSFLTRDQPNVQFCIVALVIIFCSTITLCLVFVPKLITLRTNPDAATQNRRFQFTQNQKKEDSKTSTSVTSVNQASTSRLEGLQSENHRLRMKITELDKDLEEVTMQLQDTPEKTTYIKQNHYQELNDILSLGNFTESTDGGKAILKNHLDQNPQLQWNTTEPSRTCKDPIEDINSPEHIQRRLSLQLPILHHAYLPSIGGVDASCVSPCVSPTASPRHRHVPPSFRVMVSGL
For the compound `Cc1noc2c(-c3cc(F)ccc3N)nn(C(C)c3ccc(Cl)cc3)c(=O)c12` (stereo not shown) [Example 97, 7-(2-amino-5-fluorophenyl)-5-[1-(4-chlorophenyl)ethyl]-3-methyl[1,2]oxazolo[4,5-d]pyridazin-4(5H)-one], the EC50 turned out to be 1850 nM.

With `Cc1noc2c(-c3cccnc3N)nn(C(C)c3ccc(Cl)cc3)c(=O)c12` (stereo not shown) [Example 86, 7-(2-aminopyridin-3-yl)-5-[1-(4-chlorophenyl)ethyl]-3-methyl[1,2]oxazolo[4,5-d]pyridazin-4(5H)-one], the EC50 amounted to 2760 nM. Turning to `CC(=O)Nc1cccc(-c2nn(Cc3cc(C(F)(F)F)ccc3F)c(=O)c3c(C)noc23)c1` [Example 85, N-(3-{5-[2-fluoro-5-(trifluoromethyl)benzyl]-3-methyl-4-oxo-4,5-dihydro[1,2]oxazolo[4,5-d]pyridazin-7-yl}phenyl)acetamide], the concentration giving a half-maximal response (EC50) was 2620 nM.

As to `COc1ccccc1-c1nn(Cc2cc(C(F)(F)F)ccc2F)c(=O)c2c(C)noc12` [Example 46, 5-[2-fluoro-5-(trifluoromethyl)benzyl]-7-(2-methoxyphenyl)-3-methyl[1,2]oxazolo[4,5-d]pyridazin-4(5H)-one], the EC50 was 2290 nM.
